Reference: patent publication US12290513B2, “Therapeutic methods and compositions for treating movement disorders” (Vima Therapeutics, Inc., priority 2023, dated 2025)

Legend:
M1 Muscarinic Receptor = M1 Muscarinic Receptor (Homo sapiens, UniProt P11229); experiment: (S)-BTC titration on M1 in the presence of fixed (R)-THP concentrations; format: cell-based; details: with increasing concentration of (R)-THP (58.5, 195, 585 nM)
Protocol: (§1) All cells used in the following experiments were clonal populations of Chinese Hamster Ovary (CHO) cells stably expressing the corresponding human muscarinic receptor, except for the M4 cell line, which was a population of CHO cells transiently transfected with the human M4 receptor. […] The procedure was as follows: • 1. Cells were thawed and cultured in cell culture medium (DMEM/F12 containing 10% FBS, 1× penicillin-streptomycin and 600 μg/ml hygromycin B) at 37° C. in 5% (v/v) CO2. • 2. One day before the assays, cells were detached using TrypLE™ and counted using a cell-counter. […] 12,000 cells/well were seeded in 30 μl/well culture medium in a 384-well cell plate and incubated overnight at 37C, 5% (v/v) CO2. • 4. On the assay day, 2× dye solution was prepared following the manual of the FLIPR® Calcium 6 Assay Kit: • i. The dye was diluted with assay buffer (20 mM HEPES in 1× HBSS, PH 7.4); • ii. Probenecid was added to a final concentration of 5 mM; • iii. Cells were vortexed vigorously for 1-2 minutes. • 5. Medium was removed from the cell plate by flicking the cell plate on paper towels. • 6. 10 μl of assay buffer and 10 μl of 2× dye solution was added to each well of the cell plate. • 7. […] Plates were read for 160 sec with 1 sec intervals to obtain the data in agonist mode, then kept at 25° C. in the dark for 30 min. • 11.

human M4 receptor = molecular target: T1, human M4 receptor (Homo sapiens, UniProt P08173); experiment: Calcium flux assay (FLIPR), CHO cells transiently transfected with human M4; format: cell-based; details: agonist mode
T1 construct: expressed in transfected cells; host or cells: CHO (transient transfection)
Protocol: as §1

[1] = test system: PCP (antagonist radioligand); details: at the tested concentration; negative values set to zero

agonist effect of (S)-BTC toward the M1 muscarinic receptor (M1 Muscarinic Receptor)	EC50 (human M4 receptor) [µM]	SMILES	signal, PCP (antagonist radioligand) [1] [%]
decreases substantially	> 10	C[C@@H](C[N+](C)(C)C)OC(N)=O.[Cl-] [(S)-BTC, (S)-bethanechol]	–
–	–	O[C@@](CCN1CCCCC1)(c1ccccc1)C1CCCCC1 [(R)-THP, (R)-trihexyphenidyl]	0.00
